test system: IL-2 production; test: Inhibition of IL-2 production in PHA-activated Jurkat cells (ELISA); format: cell-based; settings: Homo sapiens, PHA 2.5 μg/mL, 20 hours, IL-2 ELISA
Protocol: Jurkat cells were placed in a 96 well plate (0.5 million cells per well in 1% FBS medium) then a test compound of this invention was added at different concentrations. After 10 minutes, the cells were activated with PHA (final concentration 2.5 μg/mL) and incubated for 20 hours at 37° C. under CO2. The final volume was 200 μL. Following incubation, the cells were centrifuged and the supernatants were collected and stored at −70° C. prior to assaying for IL-2 production. A commercial ELISA kit (IL-2 Eli-pair, Diaclone Research, Besancon, France) was used to detect production of IL-2, from which dose response curves were obtained. The IC50 value was calculated as the concentration at which 50% of maximum IL-2 production after stimulation was inhibited versus a non-stimulation control.

Row | IC50 [nM] | SMILES
1 | 279 | CCCc1ccc(C(=O)Nc2cnc(-n3c(C(F)(F)F)nc4cc(OC)ccc43)cn2)cc1 [Compound 109, N-[5-(5-Methoxy-2-trifluoromethyl-benzoimidazol-1-yl)-pyrazin-2-yl]-4-propyl-benzamide]
2 | > 1000 | COc1ccc2c(c1)nc(C(F)(F)F)n2-c1cnc(NC(=O)c2ccc(C(C)C)cc2)cn1 [Compound 141, 4-Isopropyl-N-[5-(5-methoxy-2-trifluoromethyl-benzoimidazol-1-yl)-pyrazin-2-yl]-benzamide]
3 | 714 | COc1ccc2c(c1)nc(C(F)(F)F)n2-c1cnc(NC(=O)c2ccc(C(F)(F)F)cc2)cn1 [Compound 137, N-[5-(5-Methoxy-2-trifluoromethyl-benzoimidazol-1-yl)-pyrazin-2-yl]-4-trifluoromethyl-benzamide]
4 | > 1000 | COc1cccc(CNc2cnc(-n3c(C(F)(F)F)nc4cc(OC)ccc43)cn2)c1 [Compound 103, (3-Methoxy-benzyl)-[5-(5-methoxy-2-trifluoromethyl-benzoimidazol-1-yl)-pyrazin-2-yl]-amine]
5 | 489 | COc1ccc2c(c1)nc(C(F)(F)F)n2-c1cnc(NC(=O)c2cccc(SC)c2)cn1 [Compound 95, N-[5-(5-Methoxy-2-trifluoromethyl-benzoimidazol-1-yl)-pyrazin-2-yl]-3-methylsulfanyl-benzamide]
6 | 192 | COc1ccc2c(c1)nc(C(F)(F)F)n2-c1cnc(NC(=O)c2ccc(C)c([N+](=O)[O-])c2)cn1 [Compound 140, N-[5-(5-Methoxy-2-trifluoromethyl-benzoimidazol-1-yl)-pyrazin-2-yl]-4-methyl-3-nitro-benzamide]
7 | 50 | COc1ccc2c(c1)nc(C(F)(F)F)n2-c1cnc(NC(=O)c2ccc(SC)cc2)cn1 [Compound 119, N-[5-(5-Methoxy-2-trifluoromethyl-benzoimidazol-1-yl)-pyrazin-2-yl]-4-methylsulfanyl-benzamide]
8 | > 1000 | COc1ccc2c(c1)nc(C(F)(F)F)n2-c1cnc(NCc2ccc(F)cc2)cn1 [Compound 89, (4-Fluoro-benzyl)-[5-(5-methoxy-2-trifluoromethyl-benzoimidazol-1-yl)-pyrazin-2-yl]-amine]
9 | > 1000 | COc1ccc2c(c1)nc(C(F)(F)F)n2-c1cnc(NC(=O)c2ccc(C(C)(C)C)cc2)cn1 [Compound 132, 4-tert-Butyl-N-[5-(5-methoxy-2-trifluoromethyl-benzoimidazol-1-yl)-pyrazin-2-yl]-benzamide]
10 | > 1000 | COc1ccc(CNc2cnc(-n3c(C(F)(F)F)nc4cc(OC)ccc43)cn2)cc1 [Compound 90, (4-Methoxy-benzyl)-[5-(5-methoxy-2-trifluoromethyl-benzoimidazol-1-yl)-pyrazin-2-yl]-amine]
11 | 91 | COc1ccc2c(c1)nc(C(F)(F)F)n2-c1cnc(NC(=O)c2cccc(Cl)c2)cn1 [Compound 96, 3-Chloro-N-[5-(5-methoxy-2-trifluoromethyl-benzoimidazol-1-yl)-pyrazin-2-yl]-benzamide]
12 | 78 | COc1ccc2c(c1)nc(C(F)(F)F)n2-c1cnc(NC(=O)c2ccc(C)cc2C)cn1 [Compound 94, N-[5-(5-Methoxy-2-trifluoromethyl-benzoimidazol-1-yl)-pyrazin-2-yl]-2,4-dimethyl-benzamide]
13 | > 1000 | COc1ccc2c(c1)nc(C(F)(F)F)n2-c1cnc(NC(=O)c2cc(Cl)ccc2OC)cn1 [Compound 152, 5-Chloro-2-methoxy-N-[5-(5-methoxy-2-trifluoromethyl-benzoimidazol-1-yl)-pyrazin-2-yl]-benzamide]
14 | > 1000 | COc1ccc2c(c1)nc(C(F)(F)F)n2-c1cnc(NC(=O)c2cc(OC)c(OC)cc2OC)cn1 [Compound 136, 2,4,5-Trimethoxy-N-[5-(5-methoxy-2-trifluoromethyl-benzoimidazol-1-yl)-pyrazin-2-yl]-benzamide]
15 | 126 | COc1ccc2c(c1)nc(C(F)(F)F)n2-c1cnc(NC(=O)c2ccc([N+](=O)[O-])cc2F)cn1 [Compound 150, 2-Fluoro-N-[5-(5-methoxy-2-trifluoromethyl-benzoimidazol-1-yl)-pyrazin-2-yl]-4-nitro-benzamide]
16 | 396 | COc1ccc2c(c1)nc(C(F)(F)F)n2-c1cnc(NCc2ccccc2F)cn1 [Compound 41, (2-Fluoro-benzyl)-[5-(5-methoxy-2-trifluoromethyl-benzoimidazol-1-yl)-pyrazin-2-yl]-amine]
17 | 52 | COc1ccc2c(c1)nc(C(F)(F)F)n2-c1cnc(NC(=O)c2ccccc2Cl)cn1 [Compound 99, 2-Chloro-N-[5-(5-methoxy-2-trifluoromethyl-benzoimidazol-1-yl)-pyrazin-2-yl]-benzamide]
18 | > 1000 | COc1ccc2c(c1)nc(C(F)(F)F)n2-c1cnc(NCc2ccncc2)cn1 [Compound 105, [5-(5-Methoxy-2-trifluoromethyl-benzoimidazol-1-yl)-pyrazin-2-yl]-pyridin-4-ylmethyl-amine]
19 | > 1000 | COc1ccc2c(c1)nc(C(F)(F)F)n2-c1cnc(NC(=O)c2ccccc2OC)cn1 [Compound 111, 2-Methoxy-N-[5-(5-methoxy-2-trifluoromethyl-benzoimidazol-1-yl)-pyrazin-2-yl]-benzamide]
20 | 103 | COc1ccc2c(c1)nc(C(F)(F)F)n2-c1cnc(NC(=O)c2cccc([N+](=O)[O-])c2C)cn1 [Compound 135, N-[5-(5-Methoxy-2-trifluoromethyl-benzoimidazol-1-yl)-pyrazin-2-yl]-2-methyl-3-nitro-benzamide]
21 | > 1000 | COc1ccc2c(c1)nc(C(F)(F)F)n2-c1cnc(NCc2ccccc2Cl)cn1 [Compound 87, (2-Chloro-benzyl)-[5-(5-methoxy-2-trifluoromethyl-benzoimidazol-1-yl)-pyrazin-2-yl]-amine]
22 | 104 | COc1ccc2c(c1)nc(C(F)(F)F)n2-c1cnc(NC(=O)c2cccc([N+](=O)[O-])c2)cn1 [Compound 98, N-[5-(5-Methoxy-2-trifluoromethyl-benzoimidazol-1-yl)-pyrazin-2-yl]-3-nitro-benzamide]
23 | 173 | COc1ccc2c(c1)nc(C(F)(F)F)n2-c1cnc(NC(=O)c2cccc(I)c2)cn1 [Compound 112, 3-Iodo-N-[5-(5-methoxy-2-trifluoromethyl-benzoimidazol-1-yl)-pyrazin-2-yl]-benzamide]
24 | 40 | COc1ccc2c(c1)nc(C(F)(F)F)n2-c1cnc(NC(=O)c2ccc(C)cc2)cn1 [Compound 118, N-[5-(5-Methoxy-2-trifluoromethyl-benzoimidazol-1-yl)-pyrazin-2-yl]-4-methyl-benzamide]
25 | > 1000 | CCOc1ccc(C(=O)Nc2cnc(-n3c(C(F)(F)F)nc4cc(OC)ccc43)cn2)cc1 [Compound 133, 4-Ethoxy-N-[5-(5-methoxy-2-trifluoromethyl-benzoimidazol-1-yl)-pyrazin-2-yl]-benzamide]
26 | > 1000 | COc1cc(OC)cc(C(=O)Nc2cnc(-n3c(C(F)(F)F)nc4cc(OC)ccc43)cn2)c1 [Compound 129, 3,5-Dimethoxy-N-[5-(5-methoxy-2-trifluoromethyl-benzoimidazol-1-yl)-pyrazin-2-yl]-benzamide]
27 | 130 | COc1ccc2c(c1)nc(C(F)(F)F)n2-c1cnc(NC(=O)c2cc(Br)ccc2F)cn1 [Compound 130, 5-Bromo-2-fluoro-N-[5-(5-methoxy-2-trifluoromethyl-benzoimidazol-1-yl)-pyrazin-2-yl]-benzamide]

Reference: US8119643B2, “Benzoimidazolyl-pyrazine compounds for inflammation and immune-related uses” (Synta Pharmaceuticals Corp., priority 2006, dated 2012)
